The values below come from paper PMC12066977, “Alkyl Tail Variation on Chalcone‐Based Quaternary Pyridinium Salts as Rule‐of‐Thumb for Antimicrobial Activity” (Archiv Der Pharmazie, 2025).

Series [1] concerns E. coli ATCC 25922. Put plainly: Broth microdilution antimicrobial assay (MIC, IC50). Particulars: Escherichia coli, 24 h; for MIC: ATCC25922, broth microdilution, 37°C; for IC50: ATCC25922, 50% growth inhibition, read-out: IC50 [95% confidence interval] Escherichia coli. Format: cell-based. As to the method:
(§1) Reference strains of Staphylococcus aureus (ATCC 25923), Escherichia coli (ATCC 25922), and Candida albicans (ATCC 10231) were used in this study as microbial models. These strains were purchased from the American Type Culture Collection (ATCC); bacterial cultures were routinely grown on 5% blood agar plate, while fungal cultures on Sabouraud Dextrose Agar (Biolife […]., Milan, Italy). […] In short, microbial inocula were prepared at 0.5 McFarland in PBS and, subsequently, bacterial suspensions were diluted 1:200 in Mueller-Hinton broth (Sigma-Aldrich, St. Louis, MO, USA), while fungal inoculum was diluted 1:20 in RPMI-1640 medium (Gibco®, ThermoFisher Scientific Inc., Waltham, MA, USA), containing glucose 2%, 0.3% levo-glutamine buffered to pH 7.0 with 0.165 M 3-(N-morpholino) propanesulfonic acid (MOPS). A total of 100 μL of these microbial suspensions was introduced into a 96-well microplate and incubated with 100 μL of the compounds, two-fold serially diluted in the range of 100-0.19 μM. Positive controls (microbial suspensions in regular media), negative controls (only compounds), and solvent controls (microbial suspensions incubated with DMSO dilutions) were included in the tests. The plate was incubated at 37°C for 24 h, and subsequently the optical density at 630 nm (OD630nm) was spectrophotometrically measured. Experiments were carried out in triplicate in three biological replicates. […] Statistical analysis was carried out by using GraphPad Prism version 9.4.1 for Windows (GraphPad Software, San Diego, California USA, www.graphpad.com). ^a MIC (Minimum Inhibitory Concentration) were determined in vitro by means of a standardized microdilution assay, in compliance with the Clinical and laboratory Standard Institute (CLSI) guidelines (30). Microbial suspensions were prepared at 0.5 McFarland in PBS, then diluted in the media and transferred in a 96 micro-well plate together with the serially 2-fold dilutions of the compounds. After 24h of incubation at 37°C, microbial growths were evaluated by measuring the Optical Density at 600 nm, then percentage values were obtained as relative to the positive controls (microbial suspensions in regular media).
(Dilution methods test growth across graded concentrations, often in twofold steps.)

Series [2] has as its system S. aureus ATCC 25923. The series is described as above. Format: cell-based. Particulars: Staphylococcus aureus; for IC50: ATCC25923, 50% growth inhibition, 24 h, read-out: IC50 [95% confidence interval] Staphylococcus aureus; for MIC: ATCC25923, 24 h, broth microdilution, 37°C. As to the method:
as §1

For series [3], the system named is C. albicans ATCC 10231. Particulars: lead compound 1, previously reported; read-out: IC50 [95% confidence interval] Candida albicans; cited from earlier work.
Series [4] concerns Leishmania donovani. Also noted: method as in PMID 30669643, PMID 29758517. Particulars: lead compound 1, previously reported; read-out: IC50 against Leishmania donovani; cited from earlier work.
The test system of series [5] is C. albicans ATCC 10231. Kind of series: Broth microdilution antimicrobial assay (MIC, IC50). The format is cell-based. Particulars: Candida albicans, 24 h; for IC50: ATCC10231, 50% growth inhibition, read-out: IC50 [95% confidence interval] Candida albicans; for MIC: ATCC10231, broth microdilution, 37°C. As to the method: as §1
In series [6] the test system is E. coli. Kind of series: Colistin association assay. The format is cell-based, Escherichia coli. To be noted: colistin at sub-inhibitory concentration (MIC/8 = 0.027 µM). As to the method:
This is a confirmation of the ability of these new QPySs to also affect Gram‐negative proliferation once they pass through the OM.
The dry powder of the chalcone‐based QPySs was resuspended in dimethylsulfoxide (DMSO) at 20 mM and used as stock solutions. For biological investigations, compounds were used in the range 100–0.78 µM, and the solvent in the corresponding percentage range. The following commercially available antimicrobials and toxic clinical drugs were purchased from Sigma‐Aldrich (St. Louis, MO, USA), dissolved in water, and used as reference controls. Gentamicin and ampicillin were used in the range 107.69–0.82 µM and 143.23–1.12 µM, respectively; the colistin was used at 0.03 µM in association with the chalcone‐based QASs with E. coli. The fluconazole was used in the assays with C. albicans in the range 3.27–0.03 µM. […]
In short, microbial inocula were prepared at 0.5 McFarland in PBS and, subsequently, bacterial suspensions were diluted 1:200 in Mueller–Hinton broth (Sigma‐Aldrich, St. Louis, MO, USA), while fungal inoculum was diluted 1:20 in RPMI‐1640 medium (Gibco®, ThermoFisher Scientific Inc., Waltham, MA, USA), containing glucose 2%, 0.3% levo‐glutamine buffered to pH 7.0 with 0.165 M 3‐(N‐morpholino) propanesulfonic acid (MOPS). […] The plate was incubated at 37°C for 24 h, and subsequently the optical density at 630 nm (OD630nm) was spectrophotometrically measured. […]

A short description of series [7]: Cell viability and proliferation assay (WST8/CCK-8). The format is cell-based. To be noted: African green monkey, Vero cells (ATCC CCL-81), 48 h treatment, CCK-8; read-out: CC50 [95% CI] Vero cells. As to the method: (§2) Vero cell line (ATCC CCL‐81) was selected as a model system to investigate the overall effect of chalcones on non‐malignant mammalian cells. […] For experiments, cells were seeded into 96‐well plates at 10^4 cells/well and incubated at 37°C for 24 h. Following washes with PBS, the cell monolayer was incubated with 100 µL of medium containing the twofold serial dilutions of the compounds. Both untreated cells and cells incubated with medium containing solvent dilutions were included in each experiment as controls. The cell viability was assessed by a WST8‐based assay according to the manufacturer's instructions (CCK‐8, Cell Counting Kit‐8, Dojindo Molecular Technologies, Rockville, MD, USA). After 48 h of incubation, culture medium was removed from each well, the monolayer was washed with PBS, and 100 µL of fresh medium containing 10 µL of CCK‐8 solution was added. Following a 2 h incubation at 37°C, the OD450nm was read, and data were expressed as the percentage of cell viability relative to the untreated controls. The CC50 was obtained on the corresponding dose–response curves generated as previously reported for IC50 values. Experiments were carried out in triplicate in three biological replicates.
For orientation: Formazan colour is commonly taken as a measure of viable cells.

Series [8] relates to human red blood cells (hRBCs). Kind of series: Hemolytic activity assay. Format: cell-based. Particulars: 25 µM, 90 min, 37°C. As to the method: The hemolytic activity of some selected compounds was evaluated as the amount of hemoglobin released by the disruption of human red blood cells (hRBCs). For the experiments, fresh hRBCs were collected by centrifugation at 1500g for 10 min, washed three times with PBS, and resuspended to a final concentration of 4% w/v hRBCs in PBS. Then, 100 µL of hRBCs suspension and an equal volume of the twofold dilutions of the antimicrobial peptides were mixed in a 96‐well plate and incubated for 90 min at 37°C. After centrifugation at 1000g for 5 min, the supernatants were transferred into a clear 96‐well plate, and OD405nm was read. Untreated hRBCs (incubated with PBS) and hRBCs incubated with 1% Triton X‐100 were employed as negative and positive controls, respectively. The hemolysis percentage was calculated as [OD405nm (sample) − OD4_05nm (negative control)]/[OD405nm (positive control) − OD405nm (negative control)] × 100. Minimal hemolytic concentrations (MHCs) were defined as the compound concentration causing 10% hemolysis. Three independent experiments were performed in triplicate.

Series [9] concerns E. coli biofilm. Kind of series: Inhibition of biofilm formation (crystal violet staining). The format is cell-based. To be noted: Escherichia coli, 24 h, CV staining, read-out: inhibition of E. coli biofilm production. As to the method:
(§3) The ability of some selected compounds to inhibit biofilm formation was assessed by established protocols with minor modifications. In short, exponential cultures of S. aureus, E. coli, and C. albicans grown in Tryptic Soy broth (TSB, Sigma‐Aldrich, St. Louis, MO, USA) were adjusted to a final density of 10^5 CFU/mL. Aliquots of 100 µL of the microbial cultures were transferred to a 96‐well flat‐bottom polystyrene microplate, and then incubated at 37°C for 90 min to promote bacterial adhesion. Thereafter, wells were slowly rinsed with PBS to remove nonattached cells, and 100 µL of TSB supplemented with 1% glucose containing the twofold serial dilutions of the compounds was added. After incubation at 37°C for 24 h, the free‐floating cells were removed, and the biofilms were carefully washed with PBS. The biomass was quantified by a standardized crystal violet (CV) staining. Briefly, 100 µL of CV solution (0.1% in water) was added to each well containing a completely air‐dried biofilm, and incubated for 30 min at 37°C. […] Finally, the colored supernatants were transferred to a new microplate, and the OD550nm was measured. The percentage inhibition of biofilm formation in the different experimental conditions was calculated relative to the biofilm mass formed in the absence of compounds (positive control).

In series [10] the test system is S. aureus biofilm. The description is as above. The format is cell-based. Particulars: Staphylococcus aureus, 24 h, CV staining, read-out: inhibition of S. aureus biofilm production. As to the method: as §3
For series [11], the system named is Vero cells (ATCC CCL-81). Put plainly: Cell viability and proliferation assay (WST8/CCK-8). The format is cell-based. To be noted: 48 h treatment, CCK-8; read-out: CC50 [95% CI] Vero cells. As to the method:
as §2

In series [12] the test system is S. aureus ATCC 25923, E. coli ATCC 25922, C. albicans ATCC 10231. Kind of series: Broth microdilution antimicrobial assay, statements pooled over the three strains. Format: cell-based. To be noted: stated for S. aureus, E. coli and C. albicans together; read-out: MIC toward the three selected strains. As to the method: The antimicrobial activity of the compounds was assessed by determining the Minimum Inhibitory Concentration (MIC) by a well‐established broth microdilution procedure in microtiter plates and in compliance with the Clinical and Laboratory Standards Institute (CLSI) guidelines.
In short, microbial inocula were prepared at 0.5 McFarland in PBS and, subsequently, bacterial suspensions were diluted 1:200 in Mueller–Hinton broth (Sigma‐Aldrich, St. Louis, MO, USA), while fungal inoculum was diluted 1:20 in RPMI‐1640 medium (Gibco®, ThermoFisher Scientific Inc., Waltham, MA, USA), containing glucose 2%, 0.3% levo‐glutamine buffered to pH 7.0 with 0.165 M 3‐(N‐morpholino) propanesulfonic acid (MOPS). A total of 100 µL of these microbial suspensions was introduced into a 96‐well microplate and incubated with 100 µL of the compounds, two‐fold serially diluted in the range of 100–0.19 µM. Positive controls (microbial suspensions in regular media), negative controls (only compounds), and solvent controls (microbial suspensions incubated with DMSO dilutions) were included in the tests. The plate was incubated at 37°C for 24 h, and subsequently the optical density at 630 nm (OD630nm) was spectrophotometrically measured. Experiments were carried out in triplicate in three biological replicates. […]

Read-outs that look alike come from different tables or passages of the source.

`C#CCOc1ccc(C(=O)/C=C/c2cccnc2)c(OCC#C)c1` [Compound 1]: the MIC – broadly, the smallest concentration in the dilution series that meets the test's criterion for growth inhibition – in series [1] was more than 100 µM. Besides, the figures for the IC50 in [2], in series [3] and in series [4] were 47.6 µM, 43.8 µM and 4 µM, respectively.

Regarding `C#CCOc1ccc(C(=O)/C=C/c2ccc[n+](CCCCCC)c2)c(OCC#C)c1.[Br-]` [Compound 2, (E)‐3‐{3‐[2,4‐Bis(prop‐2‐yn‐1‐yloxy)phenyl]‐3‐oxoprop‐1‐en‐1‐yl}‐1‐hexylpyridin‐1‐ium bromide], the IC50 (commonly the concentration needed to halve the response being measured) in series [5] was found to be 68.7 µM; in series [2], 34.4 µM. Further, the minimum inhibitory concentration (MIC) in series [5] is 100 µM; in series [1] it was more than 100 µM; in series [2], 50 µM. The “MIC Escherichia coli in association with colistin” value in series [6] is 50 µM. Also, the CC50 (in general, the concentration at which the toxic effect on the cells reaches its halfway point) at 48 h in series [7] was more than 100 µM.

As to `C#CCOc1ccc(C(=O)/C=C/c2ccc[n+](CCCCCCCCCC)c2)c(OCC#C)c1.[Br-]` [Compound 4, (E)‐3‐{3‐[2,4‐Bis(prop‐2‐yn‐1‐yloxy)phenyl]‐3‐oxoprop‐1‐en‐1‐yl}‐1‐decylpyridin‐1‐ium bromide], the IC50 in series [5] was 4.28 µM; in [1], 4.48 µM; in series [2] it was 0.84 µM. Moreover, the MIC in series [5] came to 6.25 µM; in series [1], 6.25 µM; in series [2], 1.56 µM. The cytotoxic concentration (CC50) at 48 h in [7] is 12.8 µM. This molecule displayed a hemolytic activity in [8] of 30.0%. Further, the inhibition at 25 µM in series [9] and in series [10] was more than 90% in each case.

For `C#CCOc1ccc(C(=O)/C=C/c2cccnc2)c(OCC#C)c1` [Compound 9, (E)‐3‐{3‐[2,4‐Bis(prop‐2‐yn‐1‐yloxy)phenyl]‐3‐oxoprop‐1‐en‐1‐yl}pyridin‐1‐ium bromide], the results for the minimum inhibitory concentration (MIC) in [5], in series [2] and in series [12] were more than 100 µM, more than 100 µM and not below 50 µM, respectively. For the same molecule, the cytotoxic concentration (CC50) in series [11] came out at 6.2 µM.

On to `C#CCOc1ccc(C(=O)/C=C/c2ccc[n+](CCCCCC[n+]3cccc(/C=C/C(=O)c4ccc(OCC#C)cc4OCC#C)c3)c2)c(OCC#C)c1` [Compound 10, 1,1′‐(Hexane‐1,6‐diyl)bis{3‐[(E)‐3‐(2,4‐bis‐prop‐2‐yn‐1‐yloxyphenyl)‐3‐oxoprop‐1‐en‐1‐yl]pyridin‐1‐ium} bromide], for which the results for the half-inhibitory concentration (IC50) in [5], in series [1] and in series [2] were 95 µM, 46 µM and 58.3 µM, respectively. Also, the minimum inhibitory concentration (MIC) in series [5] is 100 µM; in series [1] it was 50 µM; in series [2], 50 µM; in series [12], not below 50 µM. In addition, the 50% cytotoxic concentration (CC50) at 48 h in [7] was more than 100 µM.
